| logP | Compound |
| --- | --- |
| 5 | O=C1c2ccccc2C(=O)C1c1nc2ccccc2cc1O |
| 4.1 | O=C1c2ccccc2C(=O)C1c1ccc2ccccc2n1 |
| 4.3 | CCN(CCO)c1ccc(N=Nc2ccc([N+](=O)[O-])cc2)cc1 |
| 4.6 | O=[N+]([O-])c1cc(S(=O)(=O)Nc2ccccc2)ccc1Nc1ccccc1 |
| 3.4 | CCn1c(O)c(N=Nc2ccc(Cl)cc2[N+](=O)[O-])c(C)c(C#N)c1=O |
| 4.8 | COc1cc(N=Nc2c(Br)cc([N+](=O)[O-])cc2[N+](=O)[O-])c(NC(C)=O)cc1N(CCOC(C)=O)CCOC(C)=O |
| 5.4 | C=CCN(CCC#N)c1cc(NC(C)=O)c(N=Nc2c(Br)cc([N+](=O)[O-])cc2[N+](=O)[O-])cc1OC |
| 3.5 | COc1cc(N)c2c(c1N)C(=O)c1ccccc1C2=O |
| 4.3 | Cc1cc(N(CCO)CCO)ccc1N=Nc1ccc([N+](=O)[O-])cc1Cl |
| 4.1 | CNc1cccc2c1C(=O)c1ccccc1C2=O |
| 3 | Nc1ccc(N)c2c1C(=O)c1ccccc1C2=O |
| 4 | N#CCCN(CCO)c1ccc(N=Nc2ccc([N+](=O)[O-])cc2Cl)cc1 |
